Source: ChEMBL document CHEMBL1126429, “MDL 74147, a novel selective and soluble inhibitor of human renin. Synthesis, structure-activity relationship, species and protease selectivities” (Bioorg Med Chem Lett, 1992)
Where a SMILES comes first, the peptide text is derived from it. [ ]: non-standard residue; d: D form. The star is where a group is joined. Cha = N[C@@H](CC1CCCCC1)C(=O)O; Boc = CC(C)(C)OC(=O)*; CF3 = FC(F)(F)*

Tests used:
[1] = target: T1, Renin (Homo sapiens, UniProt P00797); experiment: Concentration required to inhibit human plasma renin by 50% using radio-immunoassay was determined; type: cell-free
T1 sequence (P00797 whole entry): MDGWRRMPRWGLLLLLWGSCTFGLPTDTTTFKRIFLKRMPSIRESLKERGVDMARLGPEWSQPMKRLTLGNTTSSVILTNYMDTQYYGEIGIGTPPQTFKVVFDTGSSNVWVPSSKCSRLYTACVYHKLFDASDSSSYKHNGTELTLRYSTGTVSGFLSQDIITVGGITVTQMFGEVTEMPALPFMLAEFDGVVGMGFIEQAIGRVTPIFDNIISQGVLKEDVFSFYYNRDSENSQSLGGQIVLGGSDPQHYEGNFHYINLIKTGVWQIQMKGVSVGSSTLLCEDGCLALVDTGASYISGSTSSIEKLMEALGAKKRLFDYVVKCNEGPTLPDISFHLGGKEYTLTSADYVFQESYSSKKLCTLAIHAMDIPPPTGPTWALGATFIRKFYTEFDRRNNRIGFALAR

[2] = target: Chymotrypsinogen A (Bos taurus, UniProt P00766); experiment: Concentration required to inhibit the enzyme chymotrypsin
[3] = target: Pepsin A (Sus scrofa, UniProt P00791); experiment: Concentration required to inhibit the enzyme pepsin
Sequence of Pepsin A (P00791 whole entry): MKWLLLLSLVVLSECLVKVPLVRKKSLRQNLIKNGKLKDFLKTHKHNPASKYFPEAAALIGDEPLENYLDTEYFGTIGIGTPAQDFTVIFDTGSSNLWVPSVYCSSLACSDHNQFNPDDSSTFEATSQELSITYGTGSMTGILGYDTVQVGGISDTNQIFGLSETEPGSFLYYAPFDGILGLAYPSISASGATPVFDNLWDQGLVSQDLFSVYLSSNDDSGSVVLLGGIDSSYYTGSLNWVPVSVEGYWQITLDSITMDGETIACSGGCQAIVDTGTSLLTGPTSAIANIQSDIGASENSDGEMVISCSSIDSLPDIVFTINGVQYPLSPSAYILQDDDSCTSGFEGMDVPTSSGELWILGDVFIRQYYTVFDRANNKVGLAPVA

Row | Structure (SMILES) | IC50 [1] [µM] | Ki [2] [µM] | Ki [3] [µM]
1 | CCC[C@@H](C(=O)N[C@@H](CC1CCCCC1)C(=O)C(F)(F)CN)N(C)C(=O)[C@H](Cc1ccc(OC)cc1)NC(=O)CC(C)C | 40 | – | –
2 | COc1ccc(C[C@H](NC(=O)CC(C)C)C(=O)N[C@H](C)C(=O)N[C@@H](CC2CCCCC2)C(=O)C(F)(F)CN)cc1 | 27 | – | –
3 | CCC[C@H](NC(=O)[C@H](Cc1ccc(OC)cc1)NC(=O)CC(C)C)C(=O)N[C@@H](CC1CCCCC1)C(O)C(F)(F)CN (some centres not stated) | > 1 | – | –
4 | CCC[C@H](NC(=O)[C@H](Cc1ccc(OC)cc1)NC(=O)CC(C)C)C(=O)N[C@@H](CC1CCCCC1)C(=O)C(F)(F)CN | – | 2.5 | 40
5 | COc1ccc(C[C@H](NC(=O)CC(C)C)C(=O)CCC(=O)N[C@@H](CC2CCCCC2)C(=O)C(F)(F)CN)cc1 | 25 | – | –
6 | CC(C)C[C@H](NC(=O)[C@H](Cc1ccccc1)NC(=O)OC(C)(C)C)C(=O)N[C@@H](CC1CCCCC1)C(=O)C(F)(F)F (Boc-Phe-Leu-[Cha]-CF3) | 0.25 | – | –
